# Tested on: Life-threatening iron-deficiency anemic rats
# Experiment: Hemoglobin concentration after single oral dose in rats with induced life-threatening hemorrhagic anemia
# Assay type: in vivo, Albino rats of the Wisconsin Holtzman strain
# Conditions: Ferric Chloride given orally to anemic rats (group 4)
# Method: Part II: Animal Trial Experimental Design • Five weeks old Albino rats of the Wisconsin Holtzman strain, weighing 150-160 g, were divided into six, as showing below Rats of groups 1-5 were exposed daily to blood withdrawal from inner canthus of eyes. The hemoglobin concentration of collected blood samples in heparinized tubes was measured by colorimetric method using commercially available kit (Drabkin's solution). […] Rats of control group were not exposed to any blood withdrawal. After induction of Life-threatening hemorrhagic anemia, all rats were fasted for 6 hours prior their oral administration with different treatments and doses. […] Two control groups were allocated for this pilot experiment; group 5 where rats were exposed to Life-threatening hemorrhagic anemia and treated with the vitamins mixture dissolved with Nano sized magnetite (Ascorbic, folic and nicotinic acids), and group 6 where rats were non-anemic and administered distilled water (Table 1). Rats of different groups were left for 3 days after oral administration of different treatments, fed ad libitum on balanced diet containing iron and clean tap water. Blood samples were collected on 4th and 7th day after dosing and Hb concentration was measured using colorimetric method.
smiles,measurement,value
[Cl][Fe]([Cl])[Cl] [Ferric Chloride],Effect on Hb. concentration,corrected the Hb. concentration but achieved neither the levels in Nano-sized magnetite groups nor the level in control non-anemic rats
